Data: patent publication US7718391B2, “Assays for identifying modulators of rhomboid polypeptides” (Medical Research Council, priority 2001, dated 2010)
Like-named read-outs stand apart in the source and are kept apart here. Non-standard residues stand in square brackets, D forms with d. Residues, ends and D or L forms follow the SMILES beside them. *: point of attachment. Sta = CC(C)C[C@H](N)[C@@H](O)CC(=O)O; Isovaleryl = CC(C)CC(=O)*; Nle = CCCC[C@H](N)C(=O)O; Cbz = O=C(OCc1ccccc1)*

What was measured:
[1] = system: artificially truncated form of Spitz; test: Control: expression or secretion of an artificially truncated (secreted) form of Spitz; assay type: cell-based, Drosophila; details: this concentration (10-100:M)
Experimental: Cells were transfected as standard with 1 ng of Rhomboid-1 DNA (in 1 μg total DNA) and were then incubated in serum-free medium for 24 hours. The medium was then replaced with 0.5 ml serum free medium containing protease inhibitor at the indicated concentration and incubated for 1 hour. After 1 hour, the medium was collected, cleared by centrifugation, dialysed overnight against several changes of water and lyophilised. The resulting pellets were re-suspended in SDS sample buffer, boiled and analysed by Western blot. Transfections with a secreted form of Spitz were used in parallel to control for non-specific toxicity of the protease inhibitors or general inhibition of the secretory pathway.

[2] = biological target: T1, Rhomboid-1 (Drosophila melanogaster, UniProt P20350); test: Rhomboid-1 and Star dependent cleavage of GFP-Spitz in transfected COS cells (western blot of medium); assay type: cell-based
T1 construct: When co-expressed with Star and full-length Rhomboid-1 in the COS cell Spitz cleavage assay; expressed in transfected cells; host or cells: COS cells, pcDNA3.1 constructs, transient transfection
T1 sequence (P20350 1-355): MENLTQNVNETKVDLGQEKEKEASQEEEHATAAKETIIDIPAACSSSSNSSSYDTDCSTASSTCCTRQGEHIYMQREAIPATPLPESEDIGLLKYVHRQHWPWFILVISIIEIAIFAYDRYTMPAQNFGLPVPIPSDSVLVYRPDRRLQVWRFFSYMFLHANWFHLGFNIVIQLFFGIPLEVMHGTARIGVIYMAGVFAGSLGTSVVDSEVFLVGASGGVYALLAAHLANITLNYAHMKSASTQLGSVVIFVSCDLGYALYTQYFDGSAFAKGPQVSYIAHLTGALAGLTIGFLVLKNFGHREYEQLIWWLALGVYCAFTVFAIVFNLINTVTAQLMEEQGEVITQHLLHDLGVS
Experimental: COS cells were grown in DMEM medium (supplemented with 10% foetal calf serum), and transfected with FuGENE 6 Transfection Reagent (Roche). Cells were transfected in 35 mm culture wells with 25-250 ng of each construct and empty plasmid to bring the total DNA to 1 μg per well. 24-30 hours post-transfection the medium was replaced with serum-free medium; this was harvested 24 hours later and cells were lysed in SDS-sample buffer. GFP was detected in conditioned medium and cell lysates by western blot with a rabbit polyclonal antibody. For some experiments the serum-free medium was supplemented with the metalloprotease inhibitor batimastat (British Biotech) or ilomostat (Calbiochem). Cells were transfected as standard with 1 ng of Rhomboid-1 DNA (in 1 μg total DNA) and were then incubated in serum-free medium for 24 hours. The medium was then replaced with 0.5 ml serum free medium containing protease inhibitor at the indicated concentration and incubated for 1 hour. After 1 hour, the medium was collected, cleared by centrifugation, dialysed overnight against several changes of water and lyophilised. The resulting pellets were re-suspended in SDS sample buffer, boiled and analysed by Western blot. Transfections with a secreted form of Spitz were used in parallel to control for non-specific toxicity of the protease inhibitors or general inhibition of the secretory pathway. The proteolytic cleavage assay was recapitulated in a mammalian tissue culture system. Spitz was tagged with GFP near its N-terminus and transiently expressed in COS cells, in the presence or absence of Star and/or Rhomboid-1. The accumulation of the soluble extracellular fragment of GFP-Spitz in the cell medium was then measured by western blot.

[3] = system: uncleavable Spitz-TGFα chimera with Spitz residue G143 restored in the TGFα TMD
[4] = system: uncleavable Spitz-TGFα chimera (Spitz with residues 140-160 replaced by the equivalent residues from TGFα, with the TGFα C-terminus)
[5] = biological target: uncleavable Spitz-TGFα chimera with Spitz residue G143 restored in the TGFα TMD; remark: listed apart in the source
[6] = biological target: uncleavable Spitz-TGFα chimera (Spitz with residues 140-160 replaced by the equivalent residues from TGFα, with the TGFα C-terminus); remark: listed apart in the source

## O=c1oc(Cl)c(Cl)c2ccccc12 [3,4-DCI]
[1]
  expression or secretion of an artificially truncated form of Spitz (extracellular domain): did not effect
[2]
  Rhomboid activity (summary statement): inhibit
[2]; 10-100:M
  inhibition of Rhomboid activity, standard cleavage assay with panel of inhibitors: strongly inhibited

## CCOC(=O)[C@H]1O[C@@H]1C(=O)N[C@@H](CC(C)C)C(=O)NCCC(C)C [E64d]
[2]; 50:M
  inhibition of Rhomboid activity, standard cleavage assay with panel of inhibitors: No inhibition

## O=C(O)/C(S)=C/c1ccc(I)cc1 [PD150606]
[2]; concentration not given
  inhibition of Rhomboid activity, standard cleavage assay with panel of inhibitors: No inhibition

## Cc1ccc(S(=O)(=O)N[C@@H](Cc2ccccc2)C(=O)CCl)cc1 [TPCK]
[1]
  expression or secretion of an artificially truncated form of Spitz (extracellular domain): did not effect
[2]
  Rhomboid activity (summary statement): inhibit
[2]; 10-100:M
  inhibition of Rhomboid activity, standard cleavage assay with panel of inhibitors: strongly inhibited

## CCCC[C@@H](C=O)NC(=O)[C@H](CC(C)C)NC(=O)[C@H](CC(C)C)NC(=O)OCc1ccccc1 [gamma secretase inhibitor I] (Cbz-Leu-Leu-[Nle]-aldehyde)
[2]; 25:M
  inhibition of Rhomboid activity, standard cleavage assay with panel of inhibitors: No inhibition

## CNC(=O)[C@H](Cc1c[nH]c2ccccc12)NC(=O)[C@@H](CC(=O)NO)CC(C)C [ilomostat]
[2]; concentration not given
  Rhomboid-1-dependent cleavage of Spitz: insensitive
  inhibition of Rhomboid activity, standard cleavage assay with panel of inhibitors: No inhibition

## CC(=O)N[C@@H](CC(C)C)C(=O)N[C@@H](CC(C)C)C(=O)N[C@H](C=O)CCCNC(=N)N [leupeptin]
[2]; 100:M
  inhibition of Rhomboid activity, standard cleavage assay with panel of inhibitors: No inhibition

## CC(C)CC(=O)N[C@H](C(=O)N[C@H](C(=O)N[C@@H](CC(C)C)[C@@H](O)CC(=O)N[C@@H](C)C(=O)N[C@@H](CC(C)C)[C@@H](O)CC(=O)O)C(C)C)C(C)C [pepstatin A] (Isovaleryl-VV[Sta]A[Sta]-OH)
[2]; 50:M
  inhibition of Rhomboid activity, standard cleavage assay with panel of inhibitors: No inhibition

## Drosophila Rhomboid-2
[3]
  protease activity against the TGFα TMD with a restored G143: did cleave when only G143 was added back
[4]
  protease activity against the uncleavable form of Spitz: they could not cleave the TGFα TMD

## Drosophila Rhomboid-3
[3]
  protease activity against the TGFα TMD with a restored G143: did cleave when only G143 was added back
[4]
  protease activity against the uncleavable form of Spitz: they could not cleave the TGFα TMD

B1: Human RHBDL2 (protein)
chain: MNLNMGREMKEELEEEEKMREDGGGKDRAKSKKVHRIVSKWMLPEKSRGTYLERANCFPPPVFIISISLAELAVFIYYAVWKPQKQWITLDTGILESPFIYSPEKREEAWRFISYMLVHAGVQHILGNLCMQLVLGIPLEMVHKGLRVGLVYLAGVIAGSLASSIFDPLRYLVGASGGVYALMGGYFMNVLVNFQEMIPAFGIFRLLIIILIIVLDMGFALYRRFFVPEDGSPVSFAAHIAGGFAGMSIGYTVFSCFDKALLKDPRFWIAIAAYLACVLFAVFFNIFLSPAN
[5]
  protease activity against the TGFα TMD with a restored G143: did cleave when only G143 was added back
[6]
  protease activity against the uncleavable form of Spitz: they could not cleave the TGFα TMD
